Measurements reported in ChEMBL document CHEMBL4507288 (2021).

Experiments:
Conditions in all cases: Compound concentration 1000.0 nM
[1] = target: Cyclin-dependent kinase 19 (Homo sapiens) (UniProt Q9BWU1)
[2] = target: Dual specificity mitogen-activated protein kinase kinase 5 (Homo sapiens) (UniProt Q13163)
[3] = target: Aurora kinase B (Homo sapiens) (UniProt Q96GD4)
[4] = target: Proto-oncogene tyrosine-protein kinase ROS (Homo sapiens) (UniProt P08922)
[5] = target: Serine/threonine-protein kinase 25 (Homo sapiens) (UniProt O00506)
[6] = target: cAMP-dependent protein kinase catalytic subunit alpha (Homo sapiens) (UniProt P17612)
[7] = target: Fibroblast growth factor receptor 2 (Homo sapiens) (UniProt P21802)
[8] = target: Serine/threonine-protein kinase haspin (Homo sapiens) (UniProt Q8TF76)
[9] = target: Serine/threonine-protein kinase STK11 (Homo sapiens) (UniProt Q15831)
[10] = target: Homeodomain-interacting protein kinase 3 (Homo sapiens) (UniProt Q9H422)
[11] = target: Serine/threonine-protein kinase TAO2 (Homo sapiens) (UniProt Q9UL54)
[12] = target: Serine/threonine-protein kinase RIO1 (Homo sapiens) (UniProt Q9BRS2)
[13] = target: Serine/threonine-protein kinase 32C (Homo sapiens) (UniProt Q86UX6)
[14] = target: Serine/threonine-protein kinase 33 (Homo sapiens) (UniProt Q9BYT3)
[15] = target: Epithelial discoidin domain-containing receptor 1 (Homo sapiens) (UniProt Q08345)
[16] = target: NUAK family SNF1-like kinase 1 (Homo sapiens) (UniProt O60285)
[17] = target: Mitogen-activated protein kinase kinase kinase 6 (Homo sapiens) (UniProt O95382)
[18] = target: Bone morphogenetic protein receptor type-1A (Homo sapiens) (UniProt P36894)
[19] = target: Phosphorylase b kinase gamma catalytic chain, skeletal muscle/heart isoform (Homo sapiens) (UniProt Q16816)
[20] = target: Activated CDC42 kinase 1 (Homo sapiens) (UniProt Q07912)
[21] = system: Phosphatidylinositol 4,5-bisphosphate 3-kinase catalytic subunit alpha isoform (Homo sapiens), P42336 [H1047L]
[22] = target: Ephrin type-A receptor 4 (Homo sapiens) (UniProt P54764)
[23] = target: SRSF protein kinase 2 (Homo sapiens) (UniProt P78362)
[24] = system: Receptor-type tyrosine-protein kinase FLT3 (Homo sapiens), P36888 [K663Q]
[25] = target: Vascular endothelial growth factor receptor 2 (Homo sapiens) (UniProt P35968)
[26] = target: Serine/threonine-protein kinase PAK 5 (Homo sapiens) (UniProt Q9P286)
[27] = target: Mitogen-activated protein kinase kinase kinase 10 (Homo sapiens) (UniProt Q02779)
[28] = target: Platelet-derived growth factor receptor beta (Homo sapiens) (UniProt P09619)
[29] = target: Serine/threonine-protein kinase 26 (Homo sapiens) (UniProt Q9P289)
[30] = system: Tyrosine-protein kinase ABL1 (Homo sapiens), P00519 [Y253F]
[31] = target: Myotonin-protein kinase (Homo sapiens) (UniProt Q09013)
[32] = target: Receptor-interacting serine/threonine-protein kinase 1 (Homo sapiens) (UniProt Q13546)
[33] = target: Homeodomain-interacting protein kinase 4 (Homo sapiens) (UniProt Q8NE63)
[34] = target: MAP kinase-activated protein kinase 5 (Homo sapiens) (UniProt Q8IW41)
[35] = target: Ephrin type-A receptor 8 (Homo sapiens) (UniProt P29322)
[36] = target: Receptor-type tyrosine-protein kinase FLT3 (Homo sapiens) (UniProt P36888)
[37] = target: Myosin light chain kinase family member 4 (Homo sapiens) (UniProt Q86YV6)
[38] = target: Ankyrin repeat and protein kinase domain-containing protein 1 (Homo sapiens) (UniProt Q8NFD2)
[39] = system: Phosphatidylinositol 4,5-bisphosphate 3-kinase catalytic subunit alpha isoform (Homo sapiens), P42336 [H1047Y]
[40] = target: Serine/threonine-protein kinase SIK1 (Homo sapiens) (UniProt P57059)
[41] = target: Protein kinase C iota type (Homo sapiens) (UniProt P41743)
[42] = target: Peripheral plasma membrane protein CASK (Homo sapiens) (UniProt O14936)
[43] = target: Mitogen-activated protein kinase kinase kinase 13 (Homo sapiens) (UniProt O43283)
[44] = target: Myosin light chain kinase (Homo sapiens) (UniProt Q32MK0)
[45] = target: Ribosomal protein S6 kinase beta-1 (Homo sapiens) (UniProt P23443)

Chain of Ankyrin repeat and protein kinase domain-containing protein 1 (Homo sapiens) (Q8NFD2 whole entry, the tested form may be a part, canonical isoform): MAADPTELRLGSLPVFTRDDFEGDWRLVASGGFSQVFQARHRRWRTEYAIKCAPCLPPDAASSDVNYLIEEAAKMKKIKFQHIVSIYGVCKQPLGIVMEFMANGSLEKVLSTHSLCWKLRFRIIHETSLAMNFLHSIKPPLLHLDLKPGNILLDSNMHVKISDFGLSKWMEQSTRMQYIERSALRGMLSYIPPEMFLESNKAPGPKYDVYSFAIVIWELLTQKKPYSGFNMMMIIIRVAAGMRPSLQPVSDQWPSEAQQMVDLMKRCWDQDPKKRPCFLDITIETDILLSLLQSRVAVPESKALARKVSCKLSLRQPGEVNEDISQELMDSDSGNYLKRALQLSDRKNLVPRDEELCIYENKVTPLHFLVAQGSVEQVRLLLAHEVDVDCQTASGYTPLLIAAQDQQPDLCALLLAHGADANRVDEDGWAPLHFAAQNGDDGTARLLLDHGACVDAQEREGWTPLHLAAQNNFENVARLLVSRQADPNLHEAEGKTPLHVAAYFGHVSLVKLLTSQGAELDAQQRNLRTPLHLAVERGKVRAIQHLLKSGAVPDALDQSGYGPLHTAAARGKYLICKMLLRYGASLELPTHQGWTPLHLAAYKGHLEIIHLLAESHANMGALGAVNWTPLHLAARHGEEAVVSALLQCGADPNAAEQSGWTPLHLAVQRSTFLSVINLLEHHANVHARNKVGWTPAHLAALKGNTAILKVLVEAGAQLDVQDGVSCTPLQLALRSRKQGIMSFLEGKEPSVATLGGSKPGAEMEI
Chain of Serine/threonine-protein kinase TAO2 (Homo sapiens) (Q9UL54 whole entry): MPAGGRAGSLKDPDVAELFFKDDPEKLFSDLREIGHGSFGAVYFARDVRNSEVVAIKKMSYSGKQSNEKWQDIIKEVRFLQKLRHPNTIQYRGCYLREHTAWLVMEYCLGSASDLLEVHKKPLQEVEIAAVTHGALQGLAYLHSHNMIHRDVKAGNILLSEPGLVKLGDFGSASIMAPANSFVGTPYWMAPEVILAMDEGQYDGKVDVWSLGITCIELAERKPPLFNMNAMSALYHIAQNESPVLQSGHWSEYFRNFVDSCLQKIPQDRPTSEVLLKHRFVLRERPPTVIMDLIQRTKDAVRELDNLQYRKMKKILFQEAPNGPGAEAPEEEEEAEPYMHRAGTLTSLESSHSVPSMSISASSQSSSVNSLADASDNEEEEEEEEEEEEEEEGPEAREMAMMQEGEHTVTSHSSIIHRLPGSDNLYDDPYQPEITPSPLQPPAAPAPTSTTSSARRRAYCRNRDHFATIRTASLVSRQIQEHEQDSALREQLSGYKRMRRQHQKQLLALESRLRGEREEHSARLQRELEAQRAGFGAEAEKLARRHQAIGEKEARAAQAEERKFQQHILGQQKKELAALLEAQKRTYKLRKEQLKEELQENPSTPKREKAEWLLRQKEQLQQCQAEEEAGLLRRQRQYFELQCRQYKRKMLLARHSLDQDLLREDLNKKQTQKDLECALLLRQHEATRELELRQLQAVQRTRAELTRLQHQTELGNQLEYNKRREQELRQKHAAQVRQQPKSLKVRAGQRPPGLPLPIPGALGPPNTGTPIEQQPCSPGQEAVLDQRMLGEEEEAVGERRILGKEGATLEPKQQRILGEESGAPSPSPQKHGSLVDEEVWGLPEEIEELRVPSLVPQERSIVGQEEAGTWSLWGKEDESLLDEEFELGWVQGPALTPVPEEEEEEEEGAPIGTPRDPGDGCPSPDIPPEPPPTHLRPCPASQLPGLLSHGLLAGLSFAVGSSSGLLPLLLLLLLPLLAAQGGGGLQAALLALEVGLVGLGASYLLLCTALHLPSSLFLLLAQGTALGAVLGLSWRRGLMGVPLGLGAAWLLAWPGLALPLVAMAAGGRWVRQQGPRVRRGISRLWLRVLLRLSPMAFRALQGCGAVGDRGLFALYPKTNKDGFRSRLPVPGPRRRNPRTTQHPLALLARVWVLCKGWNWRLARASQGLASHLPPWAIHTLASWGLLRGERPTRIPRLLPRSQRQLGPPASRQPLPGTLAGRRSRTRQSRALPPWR
Chain of Myosin light chain kinase family member 4 (Homo sapiens) (Q86YV6 whole entry, the tested form may be a part): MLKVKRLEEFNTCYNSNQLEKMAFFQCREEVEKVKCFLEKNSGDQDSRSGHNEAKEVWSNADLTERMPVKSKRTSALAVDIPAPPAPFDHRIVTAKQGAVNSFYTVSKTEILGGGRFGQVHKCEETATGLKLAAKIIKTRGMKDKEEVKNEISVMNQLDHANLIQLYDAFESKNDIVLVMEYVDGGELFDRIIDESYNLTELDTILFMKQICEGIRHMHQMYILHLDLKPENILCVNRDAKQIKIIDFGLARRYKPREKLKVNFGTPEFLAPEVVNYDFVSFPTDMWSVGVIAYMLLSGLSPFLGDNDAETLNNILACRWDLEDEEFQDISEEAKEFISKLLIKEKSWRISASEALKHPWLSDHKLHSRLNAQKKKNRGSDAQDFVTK
Chain of MAP kinase-activated protein kinase 5 (Homo sapiens) (Q8IW41 whole entry): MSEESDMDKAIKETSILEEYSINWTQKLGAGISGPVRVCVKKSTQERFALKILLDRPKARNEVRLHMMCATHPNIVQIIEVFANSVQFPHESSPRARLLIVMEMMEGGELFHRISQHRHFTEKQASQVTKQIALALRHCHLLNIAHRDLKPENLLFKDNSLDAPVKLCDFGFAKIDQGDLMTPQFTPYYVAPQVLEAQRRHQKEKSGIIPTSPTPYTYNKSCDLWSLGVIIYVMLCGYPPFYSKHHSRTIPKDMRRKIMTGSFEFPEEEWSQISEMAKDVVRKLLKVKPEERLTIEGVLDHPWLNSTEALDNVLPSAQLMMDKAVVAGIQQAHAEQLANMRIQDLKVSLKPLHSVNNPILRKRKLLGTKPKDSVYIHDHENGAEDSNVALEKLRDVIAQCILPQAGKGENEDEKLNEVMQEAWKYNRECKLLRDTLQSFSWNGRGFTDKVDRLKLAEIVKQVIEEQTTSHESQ
Chain of Peripheral plasma membrane protein CASK (Homo sapiens) (O14936 whole entry): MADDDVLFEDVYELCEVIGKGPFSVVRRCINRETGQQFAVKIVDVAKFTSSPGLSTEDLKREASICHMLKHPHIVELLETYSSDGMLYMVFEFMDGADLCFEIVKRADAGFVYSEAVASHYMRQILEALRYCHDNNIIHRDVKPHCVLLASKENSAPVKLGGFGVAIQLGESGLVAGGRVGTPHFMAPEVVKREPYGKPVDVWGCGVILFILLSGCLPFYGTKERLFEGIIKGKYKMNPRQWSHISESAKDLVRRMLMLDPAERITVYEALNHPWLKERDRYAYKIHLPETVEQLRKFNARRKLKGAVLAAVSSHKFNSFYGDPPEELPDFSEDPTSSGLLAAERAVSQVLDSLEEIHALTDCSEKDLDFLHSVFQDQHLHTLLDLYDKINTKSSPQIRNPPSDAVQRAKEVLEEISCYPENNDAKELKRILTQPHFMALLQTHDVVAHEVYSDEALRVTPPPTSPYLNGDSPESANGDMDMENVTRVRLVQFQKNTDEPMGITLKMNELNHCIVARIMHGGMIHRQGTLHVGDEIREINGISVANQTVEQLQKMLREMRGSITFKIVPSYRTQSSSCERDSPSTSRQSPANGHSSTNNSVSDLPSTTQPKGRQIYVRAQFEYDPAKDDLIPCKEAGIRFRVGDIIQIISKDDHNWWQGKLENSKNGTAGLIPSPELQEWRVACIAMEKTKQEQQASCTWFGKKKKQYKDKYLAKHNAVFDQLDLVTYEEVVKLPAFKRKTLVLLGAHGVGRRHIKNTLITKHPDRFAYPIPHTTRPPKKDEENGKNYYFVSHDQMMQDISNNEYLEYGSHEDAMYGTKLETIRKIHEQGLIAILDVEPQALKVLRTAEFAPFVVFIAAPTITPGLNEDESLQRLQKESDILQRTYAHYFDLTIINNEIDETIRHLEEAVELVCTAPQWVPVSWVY
Chain of Epithelial discoidin domain-containing receptor 1 (Homo sapiens) (Q08345 whole entry, the tested form may be a part): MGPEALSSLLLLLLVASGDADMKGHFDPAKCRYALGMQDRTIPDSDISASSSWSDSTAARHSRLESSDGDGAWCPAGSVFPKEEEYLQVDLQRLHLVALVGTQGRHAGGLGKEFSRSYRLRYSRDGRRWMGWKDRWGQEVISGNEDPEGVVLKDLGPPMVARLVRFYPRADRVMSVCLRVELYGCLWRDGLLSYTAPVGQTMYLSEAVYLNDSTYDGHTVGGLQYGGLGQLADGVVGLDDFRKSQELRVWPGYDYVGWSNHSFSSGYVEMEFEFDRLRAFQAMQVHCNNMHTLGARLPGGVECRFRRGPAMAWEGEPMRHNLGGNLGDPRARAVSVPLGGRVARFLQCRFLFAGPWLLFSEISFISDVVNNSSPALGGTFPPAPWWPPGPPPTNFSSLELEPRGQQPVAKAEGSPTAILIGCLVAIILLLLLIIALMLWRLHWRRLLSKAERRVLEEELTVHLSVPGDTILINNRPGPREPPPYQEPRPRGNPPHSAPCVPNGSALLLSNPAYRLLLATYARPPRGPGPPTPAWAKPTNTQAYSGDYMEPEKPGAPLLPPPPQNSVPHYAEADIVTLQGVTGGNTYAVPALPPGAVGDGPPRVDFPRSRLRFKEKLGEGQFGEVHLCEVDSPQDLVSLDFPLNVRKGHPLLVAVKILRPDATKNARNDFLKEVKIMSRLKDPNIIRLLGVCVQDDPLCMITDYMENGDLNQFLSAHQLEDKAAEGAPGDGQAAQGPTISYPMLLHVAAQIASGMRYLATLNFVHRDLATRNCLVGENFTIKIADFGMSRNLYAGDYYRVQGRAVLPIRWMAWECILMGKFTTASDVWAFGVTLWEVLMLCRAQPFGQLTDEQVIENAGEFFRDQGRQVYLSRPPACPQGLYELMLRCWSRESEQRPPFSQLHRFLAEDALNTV
Chain of Aurora kinase B (Homo sapiens) (Q96GD4 whole entry): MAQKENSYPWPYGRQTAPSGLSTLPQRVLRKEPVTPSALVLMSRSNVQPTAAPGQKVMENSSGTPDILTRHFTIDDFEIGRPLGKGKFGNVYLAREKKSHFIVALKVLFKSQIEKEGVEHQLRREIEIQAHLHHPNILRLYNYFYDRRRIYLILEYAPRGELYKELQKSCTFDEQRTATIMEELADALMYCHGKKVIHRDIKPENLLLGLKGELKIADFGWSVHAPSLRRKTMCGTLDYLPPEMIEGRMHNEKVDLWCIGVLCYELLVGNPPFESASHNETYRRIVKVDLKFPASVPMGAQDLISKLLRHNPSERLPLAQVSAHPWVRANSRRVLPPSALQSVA

## O=S(=O)(NC1CCC(c2cc(F)ccc2F)(S(=O)(=O)c2ccc(Cl)cc2)CC1)C(F)(F)F (stereo not given) [MRK-560]
[1]
  residual activity: 100%
[2]
  residual activity: 52%
[3]
  residual activity: 100%
[4]
  residual activity: 100%
[5]
  residual activity: 100%
[6]
  residual activity: 100%
[7]
  residual activity: 84%
[8]
  residual activity: 69%
[9]
  residual activity: 100%
[10]
  residual activity: 100%
[11]
  residual activity: 100%
[12]
  residual activity: 98%
[13]
  residual activity: 100%
[14]
  residual activity: 76%
[15]
  residual activity: 100%
[16]
  residual activity: 83%
[17]
  residual activity: 82%
[18]
  residual activity: 100%
[19]
  residual activity: 80%
[20]
  residual activity: 96%
[21]
  residual activity: 41%
[22]
  residual activity: 95%
[23]
  residual activity: 65%
[24]
  residual activity: 97%
[25]
  residual activity: 100%
[26]
  residual activity: 100%
[27]
  residual activity: 100%
[28]
  residual activity: 100%
[29]
  residual activity: 85%
[30]
  residual activity: 100%
[31]
  residual activity: 100%
[32]
  residual activity: 100%
[33]
  residual activity: 74%
[34]
  residual activity: 93%
[35]
  residual activity: 100%
[36]
  residual activity: 100%
[37]
  residual activity: 100%
[38]
  residual activity: 92%
[39]
  residual activity: 100%
[40]
  residual activity: 100%
[41]
  residual activity: 100%
[42]
  residual activity: 68%
[43]
  residual activity: 91%
[44]
  residual activity: 86%
[45]
  residual activity: 100%
